Laboratory results from patent US8273774B2, “Phenoxypyridinylamide compounds” (AstraZeneca AB, priority 2008, dated 2012).
Where a name gives a salt, the structure may show the parent alone.

target: recombinant Human Phosphodiesterase B2 (PDE4B2) (Homo sapiens, UniProt Q07343); experiment: Human Phosphodiesterase B2 Radiometric Assay; format: biochemical; conditions: 0.1 μg/mL recombinant PDE4B2; preincubated at 30 C for 30 min; [3H]cyclic AMP 8 nM, stopped after 20 min; yttrium silicate SPA beads; read-out: PDE4B2 pIC50 (converted)
Sequence (Q07343 1-564 isoform Q07343-2): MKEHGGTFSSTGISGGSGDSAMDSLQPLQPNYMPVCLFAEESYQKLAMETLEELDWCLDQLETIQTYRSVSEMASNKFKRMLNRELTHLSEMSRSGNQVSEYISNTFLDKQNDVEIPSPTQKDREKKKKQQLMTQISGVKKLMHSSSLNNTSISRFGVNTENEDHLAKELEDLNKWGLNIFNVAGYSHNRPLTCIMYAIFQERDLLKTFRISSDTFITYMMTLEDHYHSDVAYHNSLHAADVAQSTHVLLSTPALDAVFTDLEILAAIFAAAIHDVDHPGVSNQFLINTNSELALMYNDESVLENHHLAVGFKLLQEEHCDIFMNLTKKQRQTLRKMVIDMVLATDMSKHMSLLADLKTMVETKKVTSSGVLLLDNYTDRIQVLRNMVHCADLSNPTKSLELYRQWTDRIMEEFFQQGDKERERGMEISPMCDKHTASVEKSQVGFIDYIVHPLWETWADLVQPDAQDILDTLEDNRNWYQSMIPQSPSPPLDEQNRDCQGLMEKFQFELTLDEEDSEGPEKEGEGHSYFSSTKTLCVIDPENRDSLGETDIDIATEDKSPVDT
Procedure, shortened: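 Compounds preincubated 30 min at 30 C with 0.1 μg/mL recombinant PDE4B2 in 50 mM HEPES pH 7.5, 8.3 mM MgCl2, 1.7 mM EGTA, 0.01% Brij 35.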

Compound	IC50 [nM]
O=C(N[C@H]1CC[C@@H](NC(=O)c2cc(F)cnc2Oc2cccc(-c3ccc(CCCN4CCNCC4)cc3)c2)CC1)c1cc2n(n1)CCCC2 [Example 118, N-((1s,4s)-4-(5-fluoro-2-(4′-(3-(piperazin-1-yl)propyl)biphenyl-3-yloxy)nicotinamido)cyclohexyl)-4,5,6,7-tetrahydropyrazolo[1,5-a]pyridine-2-carboxamide]	0.0398
CN(C)Cc1cc(O)ccc1-c1cccc(Oc2ncc(F)cc2C(=O)N[C@H]2CC[C@@H](NC(=O)c3cn4cc(F)ccc4n3)CC2)c1 [Example 12, N-((1s,4s)-4-(2-(2′-((dimethylamino)methyl)-4′-hydroxybiphenyl-3-yloxy)-5-fluoronicotinamido)cyclohexyl)-6-fluoroimidazo[1,2-a]pyridine-2-carboxamide]	0.0501
Cn1nc(C(=O)N[C@H]2CC[C@@H](NC(=O)c3cc(F)cnc3Oc3cccc(-c4ccc(CCCN5CCNCC5)cc4)c3)CC2)cc1C(F)(F)F [Example 160, 5-Fluoro-N-((1s,4s)-4-(1-methyl-5-(trifluoromethyl)-1H-pyrazole-3-carboxamido)cyclohexyl)-2-(4′-(3-(piperazin-1-yl)propyl)biphenyl-3-yloxy)nicotinamide]	0.01
C[C@@H]1CN(Cc2cc(-c3cccc(Oc4ncc(F)cc4C(=O)N[C@H]4CC[C@@H](NC(=O)c5cc6n(n5)CCCC6)CC4)c3)ccc2O)C[C@H](C)N1 [Example 101, N-((1s,4s)-4-(2-(3′-(((3R,5S)-3,5-dimethylpiperazin-1-yl)methyl)-4′-hydroxybiphenyl-3-yloxy)-5-fluoronicotinamido)cyclohexyl)-4,5,6,7-tetrahydropyrazolo[1,5-a]pyridine-2-carboxamide]	0.0631
O=C(N[C@H]1CC[C@@H](NC(=O)c2cc(F)cnc2Oc2cccc(-c3ccc(CN4CCNCC4)cc3)c2)CC1)c1cc2n(n1)CCCC2 [Example 114, N-((1s,4s)-4-(5-fluoro-2-(4′-(piperazin-1-ylmethyl)biphenyl-3-yloxy)nicotinamido)cyclohexyl)-4,5,6,7-tetrahydropyrazolo[1,5-a]pyridine-2-carboxamide]	0.158
O=C(N[C@H]1CC[C@@H](NC(=O)c2cc(F)cnc2Oc2cccc(-c3ccc(CCCNCCCO)cc3)c2)CC1)c1cc2n(n1)CCCC2 [Example 128, N-((1s,4s)-4-(5-fluoro-2-(4′-(3-(3-hydroxypropylamino)propyl)biphenyl-3-yloxy)nicotinamido)cyclohexyl)-4,5,6,7-tetrahydropyrazolo[1,5-a]pyridine-2-carboxamide]	0.126
C[C@@H]1CN(Cc2cc(-c3cccc(Oc4ncc(F)cc4C(=O)N[C@H]4CC[C@@H](NC(=O)c5cn6cc(F)ccc6n5)CC4)c3)ccc2O)C[C@H](C)N1 [Example 84, N-((1s,4s)-4-(2-(3′-(((3S,5R)-3,5-dimethylpiperazin-1-yl)methyl)-4′-hydroxybiphenyl-3-yloxy)-5-fluoronicotinamido)cyclohexyl)-6-fluoroimidazo[1,2-a]pyridine-2-carboxamide]	0.158
O=C(N[C@H]1CC[C@@H](NC(=O)c2cc(F)cnc2Oc2cccc(-c3ccc(CCCN4CCNCC4)cc3)c2)CC1)c1csc(CO)n1 [Example 141, N-((1s,4s)-4-(5-fluoro-2-(4′-(3-(piperazin-1-yl)propyl)biphenyl-3-yloxy)nicotinamido)cyclohexyl)-2-(hydroxymethyl)thiazole-4-carboxamide]	0.0631
C[C@@H]1CN(CCCc2ccc(-c3cccc(Oc4ncc(F)cc4C(=O)N[C@H]4CC[C@@H](NC(=O)c5ccn(C)n5)CC4)c3)cc2)C[C@H](C)N1 [Example 165, 2-(4′-(3-((3S,5R)-3,5-Dimethylpiperazin-1-yl)propyl)biphenyl-3-yloxy)-5-fluoro-N-((1s,4s)-4-(1-methyl-1H-pyrazole-3-carboxamido)cyclohexyl)nicotinamide]	0.0631

The next lines start with the values.

IC50 [nM]	Compound
0.0316	Cc1csc(C(=O)N[C@H]2CC[C@@H](NC(=O)c3cc(F)cnc3Oc3cccc(-c4ccc(CN5C[C@@H](C)N[C@@H](C)C5)cc4CN4CCOCC4)c3)CC2)n1 [Example 144, N-((1s,4s)-4-(2-(4′-(((3S,5R)-3,5-dimethylpiperazin-1-yl)methyl)-2′-(morpholinomethyl)biphenyl-3-yloxy)-5-fluoronicotinamido)cyclohexyl)-4-methylthiazole-2-carboxamide]
0.0251	Cc1nc(C(=O)N[C@H]2CC[C@@H](NC(=O)c3cc(F)cnc3Oc3cccc(-c4ccc(CN5CCOCC5)cc4O)c3)CC2)cs1 [Example 56, N-((1s,4s)-4-(5-fluoro-2-(2′-hydroxy-4′-(morpholinomethyl)biphenyl-3-yloxy)nicotinamido)cyclohexyl)-2-methylthiazole-4-carboxamide]
0.1	Cc1nc(C(=O)N[C@H]2CC[C@@H](NC(=O)c3cc(F)cnc3Oc3cccc(-c4ccc(O)cc4CN4C[C@@H](C)O[C@@H](C)C4)c3)CC2)cs1 [Example 24, N-((1s,4s)-4-(2-(2′-(((2S,6R)-2,6-dimethylmorpholino)methyl)-4′-hydroxybiphenyl-3-yloxy)-5-fluoronicotinamido)cyclohexyl)-2-methylthiazole-4-carboxamide]
0.02	Cc1cc(C(=O)N[C@H]2CC[C@@H](NC(=O)c3cc(F)cnc3Oc3cccc(-c4cccc(CCCN5CCNCC5)c4)c3)CC2)nn1C [Example 108, N-((1s,4s)-4-(1,5-dimethyl-1H-pyrazole-3-carboxamido)cyclohexyl)-5-fluoro-2-(3′-(3-(piperazin-1-yl)propyl)biphenyl-3-yloxy)nicotinamide]
0.0501	O=C(N[C@H]1CC[C@@H](NC(=O)c2cc(F)cnc2Oc2cccc(-c3ccc(O)cc3CN3CCOCC3)c2)CC1)c1cc2ccccc2nc1O [Example 42, N-((1s,4s)-4-(5-fluoro-2-(4′-hydroxy-2′-(morpholinomethyl)biphenyl-3-yloxy)nicotinamido)cyclohexyl)-2-hydroxyquinoline-3-carboxamide]
0.0251	CC(C)NC(=O)CN1CCN(Cc2ccc(-c3cccc(Oc4ncc(F)cc4C(=O)N[C@H]4CC[C@@H](NC(=O)c5cc6n(n5)CCCC6)CC4)c3)c(CN3CCOCC3)c2)CC1 [Example 200, N-((1s,4s)-4-(5-fluoro-2-(4′-((4-(2-(isopropylamino)-2-oxoethyl)piperazin-1-yl)methyl)-2′-(morpholinomethyl)biphenyl-3-yloxy)nicotinamido)cyclohexyl)-4,5,6,7-tetrahydropyrazolo[1,5-a]pyridine-2-carboxamide]
0.1	O=C(N[C@H]1CC[C@@H](NC(=O)c2cc(F)cnc2Oc2cccc(-c3ccc(O)cc3CN3CCOCC3)c2)CC1)c1cc(O)c2ccccc2n1 [Example 41, N-((1s,4s)-4-(5-fluoro-2-(4′-hydroxy-2′-(morpholinomethyl)biphenyl-3-yloxy)nicotinamido)cyclohexyl)-4-hydroxyquinoline-2-carboxamide]
0.0398	O=C(N[C@H]1CC[C@@H](NC(=O)c2cc(F)cnc2Oc2cccc(-c3ccc(O)cc3CN3CCOCC3)c2)CC1)c1ccccc1O [Example 38, 5-fluoro-2-(4′-hydroxy-2′-(morpholinomethyl)biphenyl-3-yloxy)-N-((1s,4s)-4-(2-hydroxybenzamido)cyclohexyl)nicotinamide]
3.16	Cc1nc(C(=O)N[C@H]2CC[C@@H](NC(=O)c3cc(F)cnc3Oc3cccc(-c4ccc(O)cc4CN4CCN(C(C)C)CC4)c3)CC2)cs1 [Example 25, N-((1s,4s)-4-(5-fluoro-2-(4′-hydroxy-2′-((4-isopropylpiperazin-1-yl)methyl)biphenyl-3-yloxy)nicotinamido)cyclohexyl)-2-methylthiazole-4-carboxamide]
0.0316	Cc1cccc(C(=O)N[C@H]2CC[C@@H](NC(=O)c3cc(F)cnc3Oc3cccc(-c4ccc(O)cc4CN(C)C)c3)CC2)n1 [Example 10, N-((1s,4s)-4-(2-(2′-((dimethylamino)methyl)-4′-hydroxybiphenyl-3-yloxy)-5-fluoronicotinamido)cyclohexyl)-6-methylpicolinamide]
1.26	Cc1cc(CN[C@H]2CC[C@@H](NC(=O)c3cc(F)cnc3Oc3cccc(-c4ccc(O)cc4CN4CCOCC4)c3)CC2)nn1C [Example 3, N-((1s,4s)-4-((1,5-dimethyl-1H-pyrazol-3-yl)methylamino)cyclohexyl)-5-fluoro-2-(4′-hydroxy-2′-(morpholinomethyl)biphenyl-3-yloxy)nicotinamide trifluoroacetate]
